Experimental findings from patent US8980938B2, “CXCR2 inhibitors” (Sanofi, priority 2006, dated 2015) are described below.

Broadly, the IC50 is the concentration at which inhibition is half-maximal.

human CXCR2, sequence (P25025 whole entry): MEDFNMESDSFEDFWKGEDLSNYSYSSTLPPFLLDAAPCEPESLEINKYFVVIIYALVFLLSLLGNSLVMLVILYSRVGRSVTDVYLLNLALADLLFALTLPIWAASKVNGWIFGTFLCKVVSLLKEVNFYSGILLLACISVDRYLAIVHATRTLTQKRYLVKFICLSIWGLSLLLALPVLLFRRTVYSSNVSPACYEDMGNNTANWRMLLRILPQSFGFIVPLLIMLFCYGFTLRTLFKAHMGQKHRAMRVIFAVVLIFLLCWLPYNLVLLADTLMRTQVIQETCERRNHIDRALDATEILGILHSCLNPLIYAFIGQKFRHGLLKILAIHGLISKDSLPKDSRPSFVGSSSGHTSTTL

This assay deals with human CXCR2 (Homo sapiens (Human), UniProt P25025). Kind of assay: CXCR2 inhibition: calcium fluorescence assay (FLIPR) with chemokine IL-8. Conditions: CHO-K1 cells stably transfected with human CXCR2 and Gα16, Fluo-4 calcium response. Format: cell-based. An excerpt:
Determination of CXCR2 Inhibition: Calcium Fluorescence Assay (FLIPR)
The assay is based on the detection of intracellular calcium changes detected by the selective, calcium-chelating dye, Fluo-4 (Molecular Probes). A large fluorescence intensity increase is observed upon calcium association with Fluo-4. The dye is delivered to the cell interior using an acetoxymethylester form of Fluo-4, where the intracellular esterase activity results in the charged species being released and trapped within the cytoplasm of the cell. […] By co-expressing the CXCR2 receptor and the promiscuous Gα16 protein, activation of this chemokine receptor is directed into this phospholipase C cascade resulting in intracellular calcium mobilization.
The CHO-K1 cells stably transfected with human CXCR2 and the promiscuous Gα16 protein are maintained in a log phase of growth at 37° C. and 5% CO2 in the following media: Iscove's, 10% FBS, 1X Penicillin-Streptomycin, 400 μg/ml G418 and 350 μg/ml Zeocin. Approximately 24-48 hours prior to the assay, 20,000-30,000 cells/well are plated onto a 96-well black/clear bottomed assay plate (Becton Dickinson) with a well volume of 180 μl. For dye loading the culture medium is carefully removed and replaced by 100 μl/well dye solution (4 μM Fluo-4 in 135 mM NaCl, 5 mM KCl, 1 mM magnesium sulphate, 5 mM glucose, 20 mM hepes, 2.5 mM probenecid; pH 7.4). Cells are incubated for 1 h at 37° C., and then washed 3× with buffer. After washing 90 μl buffer/well are left. Increasing concentrations of compound is added in 45 μl buffer (4× concentrated) followed by 10 min incubation at 37° C. Then the chemokine (10-100 nM) is applied in 45 μl buffer (4× concentrated) and the measurement is performed for 2 min. The IC50 value of a compound can be determined by calculation of % inhibition of total calcium response to the chemokine.
CXCR2 Inhibition with Chemokine IL-8 for Selected Example Compounds: […]
Take `CC(C)(NC(=O)c1ccc2c(c1OCCC1CCCCC1)CCCC2)C(=O)O` [Example 2, 2-{[1-(2-Cyclohexyl-ethoxy)-5,6,7,8-tetrahydro-naphthalene-2-carbonyl]-amino}-2-methyl-propionic acid]: the IC50 is 1.4 µM. The result for `CC(C)(NC(=O)c1ccc2c(c1OCCOc1ccccc1)CCCC2)C(=O)O` [Example 3, 2-Methyl-2-{[1-(2-phenoxy-ethoxy)-5,6,7,8-tetrahydro-naphthalene-2-carbonyl]-amino}-propionic acid] reads 1 µM; that for `CC(C)(NC(=O)c1ccc2c(c1OCCCCc1ccccc1)CCCC2)C(=O)O` [Example 5, 2-Methyl-2-{[1-(4-phenyl-butoxy)-5,6,7,8-tetrahydro-naphthalene-2-carbonyl]-amino}-propionic acid], 2 µM. With `CC(C)(NC(=O)c1ccc2c(c1OCCCOc1ccccc1)CCCC2)C(=O)O` [Example 7, 2-Methyl-2-{[1-(3-phenoxy-propoxy)-5,6,7,8-tetrahydro-naphthalene-2-carbonyl]-amino}-propionic acid], the half-inhibitory concentration (IC50) stood at 2.1 µM. The figure for `CC(C)(NC(=O)c1ccc2ccsc2c1OCCCc1ccccc1)C(=O)O` [Example 8, 2-Methyl-2-{[7-(3-phenyl-propoxy)-benzo[b]thiophene-6-carbonyl]-amino}-propionic acid] is 0.6 µM; for `CC(C)(NC(=O)c1ccc2ccsc2c1OCCOc1ccc(F)cc1)C(=O)O` [Example 11, 2-({7-[2-(4-Fluoro-phenoxy)-ethoxy]-benzo[b]thiophene-6-carbonyl}-amino)-2-methyl-propionic acid] it is 0.8 µM; for `CC(C)(NC(=O)c1ccc2sccc2c1OCCOc1ccccc1)C(=O)O` [Example 12, 2-Methyl-2-{[4-(2-phenoxy-ethoxy)-benzo[b]thiophene-5-carbonyl]-amino}-propionic acid] it is 1.7 µM.
